Laboratory results: the supplement of paper PMC11208160

Experiment: recombinant barcode read abundance after kanamycin selection (control-corrected) (log10(CPM+1)); higher = more efficient recombination; sequences stand for … in AGTGCAGAGAAAATCGGCCAGTTTTCTCTGCCTGCAGTCCGCATGCCGT…ATTTATGCAGCGGACTGCCTTTCTCCCAAAGTGATAAACCGGACAGTATCATGGACCGGTTTTCCCGGTAATCCGTATTTGCAAGGTTGGTTTCACT; site = the 11-nt target
Procedure, shortened: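 Duplicate cultures were plated either on chloramphenicol/ampicillin LB agar, serving as control, or on chloramphenicol/ampicillin/kanamycin with 0.1 mM IPTG. These came from a pooled E. coli library co-electroporated with a donor plasmid, each member pairing a target with an IS621 bridge RNA target-binding loop. Recombination efficiency equals averaged, control-corrected counts per million of recombinant-junction barcodes. It is listed as log10(CPM+1).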

Sequence: GGACACCACTGGGTTCTAACCTGTTGCCTGT [GGACACCCTAG_LTGcore_AC_RTGcore_AC] (site GGACACCCTAG) (LTG core: AC, RTG core: AC)
- recombinant barcode read abundance (log10): 0.54

Sequence: GGACACCCATGGGTTCTAACCTGTTGCCTAG [GGACACCCTAG_LTGcore_CA_RTGcore_CT] (site GGACACCCTAG) (LTG core: CA, RTG core: CT)
- recombinant barcode read abundance (log10): 0.765

Sequence: GGACACCCATGGGTTCTAACCTGTTGCCTTG [GGACACCCTAG_LTGcore_CA_RTGcore_CA] (site GGACACCCTAG) (LTG core: CA, RTG core: CA)
- recombinant barcode read abundance (log10): 0.0906

Sequence: GGACACCCCTGGGTTCTAACCTGTTGCCTAG [GGACACCCTAG_LTGcore_CC_RTGcore_CT] (site GGACACCCTAG) (LTG core: CC, RTG core: CT)
- recombinant barcode read abundance (log10): 1.3

Sequence: GGACACCCGTGGGTTCTAACCTGTTGCCTCG [GGACACCCTAG_LTGcore_CG_RTGcore_CG] (site GGACACCCTAG) (LTG core: CG, RTG core: CG)
- recombinant barcode read abundance (log10): 0.314

Sequence: GGACACCCTTGGGTTCTAACCTGTTGCCTAT [GGACACCCTAG_LTGcore_CT_RTGcore_AT] (site GGACACCCTAG) (LTG core: CT, RTG core: AT)
- recombinant barcode read abundance (log10): 1.28

Sequence: GGACACCCTTGGGTTCTAACCTGTTGCCTCG [GGACACCCTAG_LTGcore_CT_RTGcore_CG] (site GGACACCCTAG) (LTG core: CT, RTG core: CG)
- recombinant barcode read abundance (log10): 0.306

Sequence: GGACACCCTTGGGTTCTAACCTGTTGCCTGA [GGACACCCTAG_LTGcore_CT_RTGcore_TC] (site GGACACCCTAG) (LTG core: CT, RTG core: TC)
- recombinant barcode read abundance (log10): 1.89

Sequence: GGACACCCTTGGGTTCTAACCTGTTGCCTGT [GGACACCCTAG_LTGcore_CT_RTGcore_AC] (site GGACACCCTAG) (LTG core: CT, RTG core: AC)
- recombinant barcode read abundance (log10): 0.442

Sequence: GGACACCGATGGGTTCTAACCTGTTGCCTAG [GGACACCCTAG_LTGcore_GA_RTGcore_CT] (site GGACACCCTAG) (LTG core: GA, RTG core: CT)
- recombinant barcode read abundance (log10): 0.0895

Sequence: GGACACCGGTGGGTTCTAACCTGTTGCCTAG [GGACACCCTAG_LTGcore_GG_RTGcore_CT] (site GGACACCCTAG) (LTG core: GG, RTG core: CT)
- recombinant barcode read abundance (log10): 0.255

Sequence: GGCTCCCAATGGGTTCTAACCTGTTGCGGAG [GGCTCCCCTCC_LTGcore_AA_RTGcore_CT] (site GGCTCCCCTCC) (LTG core: AA, RTG core: CT)
- recombinant barcode read abundance (log10): 0

Sequence: GGCTCCCACTGGGTTCTAACCTGTTGCGGAG [GGCTCCCCTCC_LTGcore_AC_RTGcore_CT] (site GGCTCCCCTCC) (LTG core: AC, RTG core: CT)
- recombinant barcode read abundance (log10): 0.149

Sequence: GGCTCCCACTGGGTTCTAACCTGTTGCGGGT [GGCTCCCCTCC_LTGcore_AC_RTGcore_AC] (site GGCTCCCCTCC) (LTG core: AC, RTG core: AC)
- recombinant barcode read abundance (log10): 0.143

Sequence: GGCTCCCAGTGGGTTCTAACCTGTTGCGGAG [GGCTCCCCTCC_LTGcore_AG_RTGcore_CT] (site GGCTCCCCTCC) (LTG core: AG, RTG core: CT)
- recombinant barcode read abundance (log10): 0.156

Sequence: GGCTCCCCTTGGGTTCTAACCTGTTGCGGAA [GGCTCCCCTCC_LTGcore_CT_RTGcore_TT] (site GGCTCCCCTCC) (LTG core: CT, RTG core: TT)
- recombinant barcode read abundance (log10): 0.164

Sequence: GGCTCCCCTTGGGTTCTAACCTGTTGCGGCT [GGCTCCCCTCC_LTGcore_CT_RTGcore_AG] (site GGCTCCCCTCC) (LTG core: CT, RTG core: AG)
- recombinant barcode read abundance (log10): 0.0367

Sequence: GGCTCCCGATGGGTTCTAACCTGTTGCGGAG [GGCTCCCCTCC_LTGcore_GA_RTGcore_CT] (site GGCTCCCCTCC) (LTG core: GA, RTG core: CT)
- recombinant barcode read abundance (log10): 0.104

Sequence: GGCTCCCGATGGGTTCTAACCTGTTGCGGTC [GGCTCCCCTCC_LTGcore_GA_RTGcore_GA] (site GGCTCCCCTCC) (LTG core: GA, RTG core: GA)
- recombinant barcode read abundance (log10): 0.109

Sequence: GGCTCCCTATGGGTTCTAACCTGTTGCGGTA [GGCTCCCCTCC_LTGcore_TA_RTGcore_TA] (site GGCTCCCCTCC) (LTG core: TA, RTG core: TA)
- recombinant barcode read abundance (log10): 0.201

Sequence: GGCTCCCTCTGGGTTCTAACCTGTTGCGGAG [GGCTCCCCTCC_LTGcore_TC_RTGcore_CT] (site GGCTCCCCTCC) (LTG core: TC, RTG core: CT)
- recombinant barcode read abundance (log10): 0.172

Sequence: GGGAGCCATTGGGTTCTAACCTGTTGCTGAG [GGGAGCCCTCA_LTGcore_AT_RTGcore_CT] (site GGGAGCCCTCA) (LTG core: AT, RTG core: CT)
- recombinant barcode read abundance (log10): 0.526

Sequence: GGGAGCCCGTGGGTTCTAACCTGTTGCTGAG [GGGAGCCCTCA_LTGcore_CG_RTGcore_CT] (site GGGAGCCCTCA) (LTG core: CG, RTG core: CT)
- recombinant barcode read abundance (log10): 0.27

Sequence: GGGAGCCCTTGGGTTCTAACCTGTTGCTGAG [GGGAGCCCTCA_LTGcore_CT_RTGcore_CT] (site GGGAGCCCTCA) (LTG core: CT, RTG core: CT)
- recombinant barcode read abundance (log10): 1.87

Sequence: GGGAGCCCTTGGGTTCTAACCTGTTGCTGCT [GGGAGCCCTCA_LTGcore_CT_RTGcore_AG] (site GGGAGCCCTCA) (LTG core: CT, RTG core: AG)
- recombinant barcode read abundance (log10): 0.652

Sequence: GGGAGCCCTTGGGTTCTAACCTGTTGCTGGC [GGGAGCCCTCA_LTGcore_CT_RTGcore_GC] (site GGGAGCCCTCA) (LTG core: CT, RTG core: GC)
- recombinant barcode read abundance (log10): 0.0756

Sequence: GGGAGCCCTTGGGTTCTAACCTGTTGCTGGG [GGGAGCCCTCA_LTGcore_CT_RTGcore_CC] (site GGGAGCCCTCA) (LTG core: CT, RTG core: CC)
- recombinant barcode read abundance (log10): 0.111

Sequence: GGGAGCCCTTGGGTTCTAACCTGTTGCTGGT [GGGAGCCCTCA_LTGcore_CT_RTGcore_AC] (site GGGAGCCCTCA) (LTG core: CT, RTG core: AC)
- recombinant barcode read abundance (log10): 0.208

Sequence: GGGAGCCGATGGGTTCTAACCTGTTGCTGTC [GGGAGCCCTCA_LTGcore_GA_RTGcore_GA] (site GGGAGCCCTCA) (LTG core: GA, RTG core: GA)
- recombinant barcode read abundance (log10): 0.0745

Sequence: GGGAGCCTGTGGGTTCTAACCTGTTGCTGAG [GGGAGCCCTCA_LTGcore_TG_RTGcore_CT] (site GGGAGCCCTCA) (LTG core: TG, RTG core: CT)
- recombinant barcode read abundance (log10): 0.259

Sequence: GGGAGCCTGTGGGTTCTAACCTGTTGCTGCA [GGGAGCCCTCA_LTGcore_TG_RTGcore_TG] (site GGGAGCCCTCA) (LTG core: TG, RTG core: TG)
- recombinant barcode read abundance (log10): 0.285

Sequence: GGGCGGAACTGGGTTCTAACCTGTTGCGGGT [GGGCGGACTCC_LTGcore_AC_RTGcore_AC] (site GGGCGGACTCC) (LTG core: AC, RTG core: AC)
- recombinant barcode read abundance (log10): 0.3

Sequence: GGGCGGAATTGGGTTCTAACCTGTTGCGGAG [GGGCGGACTCC_LTGcore_AT_RTGcore_CT] (site GGGCGGACTCC) (LTG core: AT, RTG core: CT)
- recombinant barcode read abundance (log10): 0.637

Sequence: GGGCGGACCTGGGTTCTAACCTGTTGCGGAG [GGGCGGACTCC_LTGcore_CC_RTGcore_CT] (site GGGCGGACTCC) (LTG core: CC, RTG core: CT)
- recombinant barcode read abundance (log10): 1.4

Sequence: GGGCGGACTTGGGTTCTAACCTGTTGCGGAC [GGGCGGACTCC_LTGcore_CT_RTGcore_GT] (site GGGCGGACTCC) (LTG core: CT, RTG core: GT)
- recombinant barcode read abundance (log10): 0.135

Sequence: GGGCGGACTTGGGTTCTAACCTGTTGCGGGA [GGGCGGACTCC_LTGcore_CT_RTGcore_TC] (site GGGCGGACTCC) (LTG core: CT, RTG core: TC)
- recombinant barcode read abundance (log10): 1.29

Sequence: GGGCGGACTTGGGTTCTAACCTGTTGCGGTC [GGGCGGACTCC_LTGcore_CT_RTGcore_GA] (site GGGCGGACTCC) (LTG core: CT, RTG core: GA)
- recombinant barcode read abundance (log10): 0.104

Sequence: GGGCGTGCATGGGTTCTAACCTGTTGCCTAG [GGGCGTGCTAG_LTGcore_CA_RTGcore_CT] (site GGGCGTGCTAG) (LTG core: CA, RTG core: CT)
- recombinant barcode read abundance (log10): 0.233

Sequence: GGGCGTGCCTGGGTTCTAACCTGTTGCCTAG [GGGCGTGCTAG_LTGcore_CC_RTGcore_CT] (site GGGCGTGCTAG) (LTG core: CC, RTG core: CT)
- recombinant barcode read abundance (log10): 0.255

Sequence: GGGCGTGCTTGGGTTCTAACCTGTTGCCTCG [GGGCGTGCTAG_LTGcore_CT_RTGcore_CG] (site GGGCGTGCTAG) (LTG core: CT, RTG core: CG)
- recombinant barcode read abundance (log10): 0.166

Sequence: GGGCGTGCTTGGGTTCTAACCTGTTGCCTTA [GGGCGTGCTAG_LTGcore_CT_RTGcore_TA] (site GGGCGTGCTAG) (LTG core: CT, RTG core: TA)
- recombinant barcode read abundance (log10): 0.139

Sequence: GGGCGTGGATGGGTTCTAACCTGTTGCCTAG [GGGCGTGCTAG_LTGcore_GA_RTGcore_CT] (site GGGCGTGCTAG) (LTG core: GA, RTG core: CT)
- recombinant barcode read abundance (log10): 0.0898

Sequence: GGGCGTGGCTGGGTTCTAACCTGTTGCCTAG [GGGCGTGCTAG_LTGcore_GC_RTGcore_CT] (site GGGCGTGCTAG) (LTG core: GC, RTG core: CT)
- recombinant barcode read abundance (log10): 0.276
